According to publication PMC10364322, “Evaluation of chronic drug-induced electrophysiological and cytotoxic effects using human-induced pluripotent stem cell-derived cardiomyocytes (hiPSC-CMs)” (Frontiers in Pharmacology, 2023):
Read-outs that look alike come from different tables or passages of the source.

System: hiPSC-CMs (iCell-Cardiomyocytes^2)
How it was run: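 Spontaneous field potentials and impedance recorded by MEA at 37°C, 5% CO2 in hiPSC-CM monolayers (50 K/well, fibronectin-coated), 5-min baseline before compound; final DMSO 0.1%. Values are percent change from baseline, mean ± SD, compared with DMSO by Wilcoxon-Mann Whitney, interpreted against DMSO tolerance intervals.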

`Cc1cn(-c2cc(NC(=O)c3ccc(C)c(Nc4nccc(-c5cccnc5)n4)c3)cc(C(F)(F)F)c2)cn1` [Nilotinib] was tested, and the “BR (beat rate) % change from baseline” value (0.01 µM, 2h) was 1±2%, the “Beating below threshold, number of observations/total well numbers” value (0.01 µM, 2h) was 0/5 and the “Cessation of beating, number of observations/total well numbers” value (0.01 µM, 2h) was 0/5. The “EAD, number of observations/total well numbers” value (0.01 µM, 2h) was 0/5, the “FPD (field-potential duration), % change from baseline” value (0.01 µM, 2h) was 3.9±3.8% and the “FPDc (field-potential duration corrected by beat-rate), % change from baseline” value (shortened to “FPDc … % change from baseline”) (0.01 µM, 2h) was 4.1±4%. The “Flat T-wave-like, number of observations/total well numbers” value (0.01 µM, 2h) was 0/5, the “BR (beat rate) % change from baseline” value (0.01 µM, 24h) was -1±3% and the “Beating below threshold, number of observations/total well numbers” value (0.01 µM, 24h) was 0/5. The “Cessation of beating, number of observations/total well numbers” value (0.01 µM, 24h) was 0/5, the “EAD, number of observations/total well numbers” value (0.01 µM, 24h) was 0/5 and the “FPD (field-potential duration), % change from baseline” value (0.01 µM, 24h) was 6.4±4.8%. For the same molecule, the “FPDc … % change from baseline” value (0.01 µM, 24h) was 6.1±4.9%, the “Flat T-wave-like, number of observations/total well numbers” value (0.01 µM, 24h) was 0/5 and the “BR (beat rate) % change from baseline” value (0.01 µM, 48h) was -3±2%. For the same molecule, the “Beating below threshold, number of observations/total well numbers” value (0.01 µM, 48h) was 0/5, the “Cessation of beating, number of observations/total well numbers” value (0.01 µM, 48h) was 0/5 and the “EAD, number of observations/total well numbers” value (0.01 µM, 48h) was 0/5. For the same molecule, the “FPD (field-potential duration), % change from baseline” value (0.01 µM, 48h) was 12.9±12.2%, the “FPDc … % change from baseline” value (0.01 µM, 48h) was 11.9±11.5% and the “Flat T-wave-like, number of observations/total well numbers” value (0.01 µM, 48h) was 0/5. For the same molecule, the “BR (beat rate) % change from baseline” value (0.01 µM, 72h) was -8±2%, the “Beating below threshold, number of observations/total well numbers” value (0.01 µM, 72h) was 0/5 and the “Cessation of beating, number of observations/total well numbers” value (0.01 µM, 72h) was 0/5. The “EAD, number of observations/total well numbers” value (0.01 µM, 72h) was 0/5, the “FPD (field-potential duration), % change from baseline” value (0.01 µM, 72h) was 10.1±2.4% and the “FPDc … % change from baseline” value (0.01 µM, 72h) was 7.1±2.3%. For the same molecule, the “Flat T-wave-like, number of observations/total well numbers” value (0.01 µM, 72h) was 0/5, the “BR (beat rate) % change from baseline” value (0.01 µM, 96h) was -14±3% and the “Beating below threshold, number of observations/total well numbers” value (0.01 µM, 96h) was 0/5. The “Cessation of beating, number of observations/total well numbers” value (0.01 µM, 96h) was 0/5, the “EAD, number of observations/total well numbers” value (0.01 µM, 96h) was 0/5 and the “FPD (field-potential duration), % change from baseline” value (0.01 µM, 96h) was 13.9±2.5%. The “FPDc … % change from baseline” value (0.01 µM, 96h) was 8.7±2.6%, the “Flat T-wave-like, number of observations/total well numbers” value (0.01 µM, 96h) was 0/5 and the “BR (beat rate) % change from baseline” value (0.1 µM, 2h) was -1±1%. For the same molecule, the “Beating below threshold, number of observations/total well numbers” value (0.1 µM, 2h) was 0/5, the “Cessation of beating, number of observations/total well numbers” value (0.1 µM, 2h) was 0/5 and the “EAD, number of observations/total well numbers” value (0.1 µM, 2h) was 0/5. For the same molecule, the “FPD (field-potential duration), % change from baseline” value (0.1 µM, 2h) was 8.9±9.8%, the “FPDc … % change from baseline” value (0.1 µM, 2h) was 8.6±10.1% and the “Flat T-wave-like, number of observations/total well numbers” value (0.1 µM, 2h) was 0/5. The “BR (beat rate) % change from baseline” value (0.1 µM, 24h) was -8±3%, the “Beating below threshold, number of observations/total well numbers” value (0.1 µM, 24h) was 0/5 and the “Cessation of beating, number of observations/total well numbers” value (0.1 µM, 24h) was 0/5. For the same molecule, the “EAD, number of observations/total well numbers” value (0.1 µM, 24h) was 0/5, the “FPD (field-potential duration), % change from baseline” value (0.1 µM, 24h) was 19.8±3.9 % and the “FPDc … % change from baseline” value (0.1 µM, 24h) was 16.6±4.1 %. For the same molecule, the “Flat T-wave-like, number of observations/total well numbers” value (0.1 µM, 24h) was 0/5, the “BR (beat rate) % change from baseline” value (0.1 µM, 48h) was -8±4% and the “Beating below threshold, number of observations/total well numbers” value (0.1 µM, 48h) was 0/5. The “Cessation of beating, number of observations/total well numbers” value (0.1 µM, 48h) was 0/5, the “EAD, number of observations/total well numbers” value (0.1 µM, 48h) was 0/5 and the “FPD (field-potential duration), % change from baseline” value (0.1 µM, 48h) was 15.4±2.6%. The “FPDc … % change from baseline” value (0.1 µM, 48h) was 12.7±3%, the “Flat T-wave-like, number of observations/total well numbers” value (0.1 µM, 48h) was 0/5 and the “BR (beat rate) % change from baseline” value (0.1 µM, 72h) was -11±4%. The “Beating below threshold, number of observations/total well numbers” value (0.1 µM, 72h) was 0/5, the “Cessation of beating, number of observations/total well numbers” value (0.1 µM, 72h) was 0/5 and the “EAD, number of observations/total well numbers” value (0.1 µM, 72h) was 0/5. For the same molecule, the “FPD (field-potential duration), % change from baseline” value (0.1 µM, 72h) was 17.3±1.9%, the “FPDc … % change from baseline” value (0.1 µM, 72h) was 12.5±1.7% and the “Flat T-wave-like, number of observations/total well numbers” value (0.1 µM, 72h) was 0/5. For the same molecule, the “BR (beat rate) % change from baseline” value (0.1 µM, 96h) was -18±4%, the “Beating below threshold, number of observations/total well numbers” value (0.1 µM, 96h) was 0/5 and the “Cessation of beating, number of observations/total well numbers” value (0.1 µM, 96h) was 0/5. For the same molecule, the “EAD, number of observations/total well numbers” value (0.1 µM, 96h) was 0/5, the “FPD (field-potential duration), % change from baseline” value (0.1 µM, 96h) was 19.6±3.2% and the “FPDc … % change from baseline” value (0.1 µM, 96h) was 11.8±4.2%. For the same molecule, the “Flat T-wave-like, number of observations/total well numbers” value (0.1 µM, 96h) was 0/5, the “BR (beat rate) % change from baseline” value (0.3 µM, 2h) was -4±1% and the “Beating below threshold, number of observations/total well numbers” value (0.3 µM, 2h) was 0/5. The “Cessation of beating, number of observations/total well numbers” value (0.3 µM, 2h) was 0/5, the “EAD, number of observations/total well numbers” value (0.3 µM, 2h) was 0/5 and the “FPD (field-potential duration), % change from baseline” value (0.3 µM, 2h) was 22.4±5.4 %. For the same molecule, the “FPDc … % change from baseline” value (0.3 µM, 2h) was 20.8±5.2 %, the “Flat T-wave-like, number of observations/total well numbers” value (0.3 µM, 2h) was 0/5 and the “BR (beat rate) % change from baseline” value (0.3 µM, 24h) was -17±2 %. The “Beating below threshold, number of observations/total well numbers” value (0.3 µM, 24h) was 0/5, the “Cessation of beating, number of observations/total well numbers” value (0.3 µM, 24h) was 0/5 and the “EAD, number of observations/total well numbers” value (0.3 µM, 24h) was 0/5. The “FPD (field-potential duration), % change from baseline” value (0.3 µM, 24h) was 61.6±9.1 %, the “FPDc … % change from baseline” value (0.3 µM, 24h) was 52.4±8.3 % and the “Flat T-wave-like, number of observations/total well numbers” value (0.3 µM, 24h) was 0/5. The “BR (beat rate) % change from baseline” value (0.3 µM, 48h) was -13±1%, the “Beating below threshold, number of observations/total well numbers” value (0.3 µM, 48h) was 0/5 and the “Cessation of beating, number of observations/total well numbers” value (0.3 µM, 48h) was 0/5. For the same molecule, the “EAD, number of observations/total well numbers” value (0.3 µM, 48h) was 0/5, the “FPD (field-potential duration), % change from baseline” value (0.3 µM, 48h) was 46.7±15.8 % and the “FPDc … % change from baseline” value (0.3 µM, 48h) was 39.9±14.5 %. For the same molecule, the “Flat T-wave-like, number of observations/total well numbers” value (0.3 µM, 48h) was 0/5, the “BR (beat rate) % change from baseline” value (0.3 µM, 72h) was -19±3 % and the “Beating below threshold, number of observations/total well numbers” value (0.3 µM, 72h) was 0/5. The “Cessation of beating, number of observations/total well numbers” value (0.3 µM, 72h) was 0/5, the “EAD, number of observations/total well numbers” value (0.3 µM, 72h) was 0/5 and the “FPD (field-potential duration), % change from baseline” value (0.3 µM, 72h) was 59.3±17.6 %. For the same molecule, the “FPDc … % change from baseline” value (0.3 µM, 72h) was 48.5±15 %, the “Flat T-wave-like, number of observations/total well numbers” value (0.3 µM, 72h) was 0/5 and the “BR (beat rate) % change from baseline” value (0.3 µM, 96h) was -23±2%. The “Beating below threshold, number of observations/total well numbers” value (0.3 µM, 96h) was 0/5, the “Cessation of beating, number of observations/total well numbers” value (0.3 µM, 96h) was 0/5 and the “EAD, number of observations/total well numbers” value (0.3 µM, 96h) was 0/5. The “FPD (field-potential duration), % change from baseline” value (0.3 µM, 96h) was 57±11 %, the “FPDc … % change from baseline” value (0.3 µM, 96h) was 44.7±10.1 % and the “Flat T-wave-like, number of observations/total well numbers” value (0.3 µM, 96h) was 1/5. For the same molecule, the “wells displaying EAD-like events” value (1 µM) was “one of five wells”, the “BR (beat rate) % change from baseline” value (1 µM, 2h) was -15±5 % and the “Beating below threshold, number of observations/total well numbers” value (1 µM, 2h) was 0/5. For the same molecule, the “Cessation of beating, number of observations/total well numbers” value (1 µM, 2h) was 0/5, the “EAD, number of observations/total well numbers” value (1 µM, 2h) was 1/5 and the “FPD (field-potential duration), % change from baseline” value (1 µM, 2h) was 80.6±28.8 %. The “FPDc … % change from baseline” value (1 µM, 2h) was 70.6±24.2 %, the “Flat T-wave-like, number of observations/total well numbers” value (1 µM, 2h) was 0/5 and the “BR (beat rate) % change from baseline” value (1 µM, 24h) was -42±3 %. For the same molecule, the “Beating below threshold, number of observations/total well numbers” value (1 µM, 24h) was 0/5, the “Cessation of beating, number of observations/total well numbers” value (1 µM, 24h) was 0/5 and the “EAD, number of observations/total well numbers” value (1 µM, 24h) was 1/5. The “FPD (field-potential duration), % change from baseline” value (1 µM, 24h) was 264.1±51.3 %, the “FPDc … % change from baseline” value (1 µM, 24h) was 200.7±36.5 % and the “Flat T-wave-like, number of observations/total well numbers” value (1 µM, 24h) was 2/5. The “BR (beat rate) % change from baseline” value (1 µM, 48h) was -37±3 %, the “Beating below threshold, number of observations/total well numbers” value (1 µM, 48h) was 0/5 and the “Cessation of beating, number of observations/total well numbers” value (1 µM, 48h) was 0/5. The “EAD, number of observations/total well numbers” value (1 µM, 48h) was 1/5, the “FPD (field-potential duration), % change from baseline” value (1 µM, 48h) was 209.3±40.8 % and the “FPDc … % change from baseline” value (1 µM, 48h) was 164.9±31.8 %. The “BR (beat rate) % change from baseline” value (1 µM, 72h) was -44±3 %, the “Beating below threshold, number of observations/total well numbers” value (1 µM, 72h) was 0/5 and the “Cessation of beating, number of observations/total well numbers” value (1 µM, 72h) was 0/5. The “EAD, number of observations/total well numbers” value (1 µM, 72h) was 1/5, the “FPD (field-potential duration), % change from baseline” value (1 µM, 72h) was 260.2±58.2 % and the “FPDc … % change from baseline” value (1 µM, 72h) was 196.4±43 %. The “Flat T-wave-like, number of observations/total well numbers” value (1 µM, 72h) was 1/5, the “BR (beat rate) % change from baseline” value (1 µM, 96h) was -43±3 % and the “Beating below threshold, number of observations/total well numbers” value (1 µM, 96h) was 0/5. The “Cessation of beating, number of observations/total well numbers” value (1 µM, 96h) was 0/5, the “EAD, number of observations/total well numbers” value (1 µM, 96h) was 1/5 and the “FPD (field-potential duration), % change from baseline” value (1 µM, 96h) was 208.7±49.5 %. The “FPDc … % change from baseline” value (1 µM, 96h) was 156.3±38.4 %, the “Flat T-wave-like, number of observations/total well numbers” value (1 µM, 96h) was 1/5 and the “prolongation of FPD” value (1 and 0.3 µM, acute and chronic time points) was “significant dose-dependent prolongation of the FPD”. For the same molecule, the cessation of beating (any concentration) was “no cessation of beating occurred in any concentration”.
